In ChEMBL document CHEMBL5500324, “The potential of marine-derived piperazine alkaloids: Sources, structures and bioactivities” (Eur J Med Chem, 2024):
Converted amounts (≈) assume the structure as drawn. Values belong to the molecule of their own block, whether it stands above or below them.

How the values were obtained:
Type in all cases: functional, cell-based
[1] = tested on: U-937; experiment: Cytotoxicity against human U-937 cells assessed as reduction in cell growth incubated for 48 hrs by CCK-8 assay; settings: U-937, 48 h
[2] = tested on: PC-3; experiment: Cytotoxicity against human PC-3 cells assessed as reduction in cell growth incubated for 48 hrs by CCK-8 assay; settings: PC-3, 48 h
[3] = tested on: HeLa; experiment: Cytotoxicity against human HeLa cells assessed as cell growth inhibition
[4] = tested on: L1210; experiment: Cytotoxicity against mouse L1210 assessed as cell growth inhibition
[5] = tested on: A549; experiment: Antiproliferative activity against human A549 cells assessed as reduction in cell viability incubated for 72 hrs by SRB assay; settings: A549, 72 h
[6] = tested on: MDA-MB-231; experiment: Antiproliferative activity against human MDA-MB-231 cells assessed as reduction in cell viability incubated for 72 hrs by SRB assay; settings: MDA-MB-231, 72 h
[7] = tested on: HT-29; experiment: Antiproliferative activity against human HT-29 cells assessed as reduction in cell viability incubated for 72 hrs by SRB assay; settings: HT-29, 72 h
[8] = tested on: Bel-7402; experiment: Cytotoxicity against human Bel-7402 cells assessed as reduction in cell growth incubated for 72 hrs measured by MTT assay; settings: Bel-7402, 72 h
[9] = tested on: HepG2; experiment: Antiproliferative activity against human HepG2 cells assessed as reduction in cell viability by CCK-8 assay
[10] = tested on: A549; experiment: Cytotoxicity against human A549 cells assessed as reduction in cell viability incubated for 48 hrs by MTT assay; settings: A549, 48 h
[11] = tested on: HCT-116; experiment: Cytotoxicity against human HCT-116 cells assessed as reduction in cell viability incubated for 48 hrs by MTT assay; settings: HCT-116, 48 h
[12] = tested on: A549; experiment: Cytotoxicity against human A549 cells assessed as reduction in cell viability incubated for 24 hrs by CCK-8 assay; settings: A549, 24 h
[13] = tested on: HeLa; experiment: Cytotoxicity against human HeLa cells assessed as reduction in cell viability incubated for 24 hrs by CCK-8 assay
[14] = tested on: AGS; experiment: Antiproliferative activity against human AGS cells assessed as reduction in cell viability measured for 48 hrs by Cell-Titer Glo assay
[15] = tested on: MCF7; experiment: Antiproliferative activity against human MCF7 cells assessed as reduction in cell viability incubated for 72 hrs by MTT assay; settings: MCF7, 72 h
[16] = tested on: HCT-116; experiment: Antiproliferative activity against human HCT-116 cells assessed as reduction in cell growth
[17] = tested on: A549; experiment: Antiproliferative activity against human A549 cells assessed as reduction in cell viability incubated for 72 hrs by CCK-8 assay; settings: A549, 72 h
[18] = tested on: T47D; experiment: Antiproliferative activity against human T47D cells incubated for 48 hrs by MTT assay
[19] = tested on: HL-60; experiment: Cytotoxicity against human HL-60 cells assessed as reduction in cell growth
[20] = tested on: U-937; experiment: Cytotoxicity against human U-937 cells assessed as inhibition of cell growth
[21] = tested on: HCT-116; experiment: Cytotoxicity against human HCT-116 cells assessed as reduction in cell viability incubated for 24 hrs by MTT assay; settings: HCT-116, 24 h
[22] = tested on: HEK293; experiment: Cytotoxicity against HEK293 cells assessed as cell growth inhibition; settings: Homo sapiens
[23] = tested on: RKO; experiment: Cytotoxicity against human RKO cells assessed as inhibition of cell growth measured after 48 hrs by MTT assay
[24] = tested on: SF-268; experiment: Cytotoxicity against human SF-268 cells assessed as inhibition of cell growth incubated for 72 hrs by SRB assay; settings: SF-268, 72 h
[25] = tested on: HepG2; experiment: Cytotoxicity against human HepG2 cells assessed as inhibition of cell growth incubated for 72 hrs by SRB assay; settings: HepG2, 72 h
[26] = tested on: MCF7; experiment: Cytotoxicity against human MCF7 cells assessed as inhibition of cell growth incubated for 72 hrs by SRB assay; settings: MCF7, 72 h
[27] = tested on: A549; experiment: Cytotoxicity against human A549 cells assessed as inhibition of cell growth incubated for 72 hrs by SRB assay; settings: A549, 72 h
[28] = Cytotoxicity against human AML1 cells expressing FLT3-ITD mutant assessed as cell viability

Compound: COc1ccc2c3c([nH]c2c1)[C@H](C=C(C)C)N1C(=O)[C@@H]2CCCN2C(=O)[C@]1(O)[C@H]3O
- IC50 [1]: 1.82 µM
- IC50 [2]: 6.56 µM

Compound: COc1ccc2c3c(n(CC=C(C)C)c2c1)[C@H](C=C(C)C)N1C(=O)[C@@H]2CCCN2C(=O)[C@]1(O)[C@H]3O
- IC50 [1]: 14.1 µM
- IC50 [2]: 43.4 µM

Compound: CC1(C)C=Cc2c(ccc3c2N(O)C(=O)[C@@]32C[C@@]34NC(=O)[C@]5(CCCN5C3=O)C[C@H]4C2(C)C)O1
- IC50 [3]: 27 µg/mL (≈ 58.2 µM)
- IC50 [4]: 29 µg/mL (≈ 62.6 µM)

- IC50 [5]: 3.1 µM
- IC50 [6]: 3.8 µM
- IC50 [7]: 3.3 µM
Compound: CN1C[C@@H](c2c[nH]c3cc(Br)ccc23)NC[C@@H]1c1c[nH]c2cc(Br)ccc12

Compound: C[C@H]1CCN2C[C@]34CC5(C(=O)Nc6c5ccc5c6OC=CC(C)(C)O5)C(C)(C)[C@@H]3C[C@]12C(=O)N4C (some centres not stated)
- IC50 [8]: 1.9 µM

- IC50 [9]: 21 µg/mL (≈ 45.6 µM)
Compound: CS[C@@]12CC3=CC=C[C@H](OC(C)=O)[C@H]3N1C(=O)[C@]1(SC)CC3=CC=C[C@H](O)[C@H]3N1C2=O

Compound: C[C@H]1CCN2C[C@]34CC5(C(=O)Nc6c5cc(O)c5c6OC=CC(C)(C)O5)C(C)(C)[C@@H]3C[C@]12C(=O)N4C (some centres not stated)
- IC50 [8]: 3.3 µM

Compound: COc1ccc(C[C@H]2NC(=O)[C@@H](CC(C)C)NC2=O)cc1O
- IC50 [10]: 35.4 µg/mL (≈ 116 µM)
- IC50 [11]: 75.4 µg/mL (≈ 246 µM)

Compound: CC[C@H](C)[C@]1(O)NC(=O)[C@@H](Cc2ccccc2)N2C(=O)C3=C(NC21)OC=CC=C3 (some centres not stated)
- IC50 [12]: 61 µM
- IC50 [13]: 114 µM

- IC50 [9]: 48 µg/mL (≈ 108 µM)
Compound: CS[C@@]12CC3=CC=CC[C@H]3N1C(=O)[C@]1(SC)CC3=CC=C[C@H](OC(C)=O)[C@H]3N1C2=O

- IC50 [14]: 29 µM
- IC50 [15]: 31 µM
- IC50 [16]: 52 µM
- IC50 [17]: 23 µM
Compound: CC(=O)O[C@H]1C=COC=C2C[C@@]34SS[C@]5(Cc6ccccc6N5C3=O)C(=O)N4[C@@H]21

- IC50 [18]: 11.6 µg/mL (≈ 30.2 µM)
Compound: CC(C)=CCC/C(C)=C/COc1ccc(/C=C2\NC(=O)[C@H](C)N(O)C2=O)cc1
- IC50 [19]: 11.6 µg/mL (≈ 30.2 µM)
- IC50 [20]: 11.6 µg/mL (≈ 30.2 µM)

Compound: CN1C(=O)[C@]2(S)CC3=CC=C[C@H](O)[C@H]3N2C(=O)[C@]1(S)CO
- IC50 [21]: 0.43 µM
- IC50 [22]: 1.26 µM
- IC50 [23]: 0.41 µM

Compound: CN1C(=O)[C@@]23CSC4=C(C(=O)c5ccccc5C4=O)N2C[C@@H]1CO3
- IC50 [24]: 11.9 µM
- IC50 [25]: 12 µM
- IC50 [26]: 20.7 µM
- IC50 [27]: 13.5 µM

Compound: COc1ccc2c3c([nH]c2c1)[C@H](C=C(C)C)N1C(=O)[C@@H]2CCCN2C(=O)[C@]1(O)C3
- IC50 [1]: 18.2 µM

Compound: CC1(C)C=Cc2c(ccc3c2N[C@@]24N5C(=O)[C@@H]6CCCN6C(=O)[C@]5(O)C[C@@]32O[C@H](CO)C4(C)C)O1
- IC50 [28]: 7.2 µM

Compound: CS[C@@]12CC3=CC=C[C@H](OC(C)=O)[C@H]3N1C(=O)[C@]1(SC)CC3=CC=C[C@H](OC(C)=O)[C@H]3N1C2=O
- IC50 [9]: 42 µg/mL (≈ 83.6 µM)

Compound: COc1ccc2c3c([nH]c2c1)[C@H](C=C(C)C)N1C(=O)[C@@H]2CCCN2C(=O)[C@@]1(O)[C@H]3O
- IC50 [1]: 92.4 µM

Compound: C=CC(C)(C)[C@]1(C[C@H]2NC(=O)[C@H]3CCCN3C2=O)C(=O)Nc2c1ccc1c2C=CC(C)(C)O1
- IC50 [3]: 50 µg/mL (≈ 111 µM)
- IC50 [4]: 22 µg/mL (≈ 48.9 µM)
